Results on three compounds are retold here after publication PMC6430017, “Structural and chemical insights into the covalent-allosteric inhibition of the protein kinase Akt” (Chemical Science, 2019).

Common to all, as to test: SelectScreen Z'LYTE kinase profiling
Assay type in all cases: biochemical
Common to all, as to conditions: ATP at apparent KM

Assay [1] has as its target ROCK2 (Homo sapiens, UniProt O75116).
Method: (§1) protein kinases at a compound concentration of 1 µM. Measurements were performed in duplicates
(§2) and at the particular apparent ATP KM of each individual kinase employing the activity based Z’LYTE®
(§3) kinase assay of the SelectScreen® Kinase Profiling Services (ThermoFisher Scientific).
(§4) kinases at a compound concentration of 1 µM. Measurements were performed in duplicates and at
(§5) the particular apparent ATP KM of each individual kinase employing the activity based Z’LYTE® kinase
(§6) assay of the SelectScreen® Kinase Profiling Services (ThermoFisher Scientific).
For assay [2], the target named is T1, SGK (SGK1) (Homo sapiens, UniProt O00141).
T1 sequence (O00141 1-431): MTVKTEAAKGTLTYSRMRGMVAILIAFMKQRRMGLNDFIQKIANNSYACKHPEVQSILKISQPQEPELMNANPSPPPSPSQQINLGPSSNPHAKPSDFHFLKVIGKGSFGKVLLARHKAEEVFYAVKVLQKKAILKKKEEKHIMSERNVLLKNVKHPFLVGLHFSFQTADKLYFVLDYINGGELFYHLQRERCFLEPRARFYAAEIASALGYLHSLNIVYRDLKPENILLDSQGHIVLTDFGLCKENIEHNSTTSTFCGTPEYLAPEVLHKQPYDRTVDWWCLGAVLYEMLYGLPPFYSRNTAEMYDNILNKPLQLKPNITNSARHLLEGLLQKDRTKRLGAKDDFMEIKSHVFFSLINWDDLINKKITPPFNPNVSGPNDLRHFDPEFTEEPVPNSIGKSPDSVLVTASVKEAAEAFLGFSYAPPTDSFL
Method: as §1, §2, §3, §4, §5, §6

Assay [3] deals with T2, PRKCZ (PKC zeta) (Homo sapiens, UniProt Q05513).
T2 sequence (Q05513 1-592): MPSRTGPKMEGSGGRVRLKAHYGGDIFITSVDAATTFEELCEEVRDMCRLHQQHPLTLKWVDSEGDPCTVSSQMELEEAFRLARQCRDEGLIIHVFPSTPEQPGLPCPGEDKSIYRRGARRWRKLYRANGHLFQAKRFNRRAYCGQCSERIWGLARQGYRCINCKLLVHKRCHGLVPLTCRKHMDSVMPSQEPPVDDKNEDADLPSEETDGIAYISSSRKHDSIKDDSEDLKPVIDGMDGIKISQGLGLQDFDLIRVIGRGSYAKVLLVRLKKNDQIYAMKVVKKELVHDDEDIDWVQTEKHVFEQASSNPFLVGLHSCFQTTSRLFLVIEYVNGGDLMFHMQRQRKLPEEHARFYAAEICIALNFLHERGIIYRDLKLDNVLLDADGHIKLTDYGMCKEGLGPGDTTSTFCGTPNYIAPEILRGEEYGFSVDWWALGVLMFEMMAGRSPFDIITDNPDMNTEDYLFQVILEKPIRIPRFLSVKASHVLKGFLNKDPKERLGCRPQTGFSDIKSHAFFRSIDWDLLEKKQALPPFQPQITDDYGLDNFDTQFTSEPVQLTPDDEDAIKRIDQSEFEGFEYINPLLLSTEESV
Method: as §1, §2, §3, §4, §5, §6

Assay [4] deals with NTRK2 (TRKB) (Homo sapiens, UniProt Q16620).
Method: as §1, §2, §3, §4, §5, §6
Assay [5] has as its target PLK1 (Homo sapiens, UniProt P53350).
Assay [6] concerns the target SRC (Homo sapiens, UniProt P12931).
Method: as §1, §2, §3, §4, §5, §6
For assay [7], the target named is T3, FLT3 (Homo sapiens, UniProt P36888).
T3 sequence (P36888 27-993): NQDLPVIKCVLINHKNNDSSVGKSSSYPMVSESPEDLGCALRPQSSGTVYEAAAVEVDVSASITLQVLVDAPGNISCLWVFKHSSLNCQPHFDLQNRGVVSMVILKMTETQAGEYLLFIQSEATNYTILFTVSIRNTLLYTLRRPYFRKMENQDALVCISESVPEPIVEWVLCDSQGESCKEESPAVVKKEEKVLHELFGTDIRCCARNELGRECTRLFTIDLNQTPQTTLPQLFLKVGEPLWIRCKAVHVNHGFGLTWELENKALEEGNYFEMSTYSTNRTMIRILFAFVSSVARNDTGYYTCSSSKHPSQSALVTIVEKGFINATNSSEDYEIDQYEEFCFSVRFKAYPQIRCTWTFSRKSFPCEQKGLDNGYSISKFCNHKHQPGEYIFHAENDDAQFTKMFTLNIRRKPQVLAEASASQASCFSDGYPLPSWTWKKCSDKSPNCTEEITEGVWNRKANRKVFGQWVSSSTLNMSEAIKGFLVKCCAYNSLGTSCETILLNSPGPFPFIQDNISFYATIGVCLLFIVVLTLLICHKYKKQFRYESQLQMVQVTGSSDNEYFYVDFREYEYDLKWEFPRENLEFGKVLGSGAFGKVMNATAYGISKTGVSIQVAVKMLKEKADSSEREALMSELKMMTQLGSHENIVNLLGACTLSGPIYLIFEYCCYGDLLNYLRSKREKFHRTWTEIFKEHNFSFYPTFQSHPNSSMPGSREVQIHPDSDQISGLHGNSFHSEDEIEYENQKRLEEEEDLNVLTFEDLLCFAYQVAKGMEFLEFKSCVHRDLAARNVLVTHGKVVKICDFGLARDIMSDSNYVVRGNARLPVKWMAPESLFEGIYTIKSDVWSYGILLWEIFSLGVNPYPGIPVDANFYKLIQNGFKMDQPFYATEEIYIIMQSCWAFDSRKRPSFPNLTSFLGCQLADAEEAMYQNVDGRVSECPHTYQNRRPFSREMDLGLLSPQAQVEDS
Method: as §1, §2, §3, §4, §5, §6

Assay [8] has as its target RPS6KA1 (RSK1) (Homo sapiens, UniProt Q15418).
Method: as §1, §2, §3, §4, §5, §6
In assay [9] the target is FGFR1 (Homo sapiens, UniProt P11362).
FGFR1, sequence (P11362 22-822): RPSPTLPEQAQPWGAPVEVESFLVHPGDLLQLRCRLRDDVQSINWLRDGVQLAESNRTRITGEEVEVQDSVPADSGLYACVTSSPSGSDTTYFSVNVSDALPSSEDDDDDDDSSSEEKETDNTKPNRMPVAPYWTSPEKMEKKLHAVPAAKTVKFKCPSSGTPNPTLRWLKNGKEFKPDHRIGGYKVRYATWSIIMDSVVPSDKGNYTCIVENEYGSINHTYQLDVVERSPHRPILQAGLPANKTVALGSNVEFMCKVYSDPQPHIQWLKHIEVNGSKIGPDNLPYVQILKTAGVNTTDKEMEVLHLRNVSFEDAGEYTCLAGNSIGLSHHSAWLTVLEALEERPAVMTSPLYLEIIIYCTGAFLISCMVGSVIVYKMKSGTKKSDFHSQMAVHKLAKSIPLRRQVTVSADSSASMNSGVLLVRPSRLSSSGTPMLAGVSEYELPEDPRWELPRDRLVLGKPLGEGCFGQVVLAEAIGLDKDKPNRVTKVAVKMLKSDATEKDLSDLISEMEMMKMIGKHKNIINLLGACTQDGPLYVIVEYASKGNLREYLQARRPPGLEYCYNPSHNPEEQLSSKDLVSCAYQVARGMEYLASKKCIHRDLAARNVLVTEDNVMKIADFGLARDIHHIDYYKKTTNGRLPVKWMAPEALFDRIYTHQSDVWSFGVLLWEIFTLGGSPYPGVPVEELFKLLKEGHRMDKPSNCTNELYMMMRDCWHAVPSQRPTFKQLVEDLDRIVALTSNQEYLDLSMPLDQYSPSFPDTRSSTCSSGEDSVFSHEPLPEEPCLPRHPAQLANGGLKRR
Method: as §1, §2, §3, §4, §5, §6

SRC, sequence (P12931 whole entry): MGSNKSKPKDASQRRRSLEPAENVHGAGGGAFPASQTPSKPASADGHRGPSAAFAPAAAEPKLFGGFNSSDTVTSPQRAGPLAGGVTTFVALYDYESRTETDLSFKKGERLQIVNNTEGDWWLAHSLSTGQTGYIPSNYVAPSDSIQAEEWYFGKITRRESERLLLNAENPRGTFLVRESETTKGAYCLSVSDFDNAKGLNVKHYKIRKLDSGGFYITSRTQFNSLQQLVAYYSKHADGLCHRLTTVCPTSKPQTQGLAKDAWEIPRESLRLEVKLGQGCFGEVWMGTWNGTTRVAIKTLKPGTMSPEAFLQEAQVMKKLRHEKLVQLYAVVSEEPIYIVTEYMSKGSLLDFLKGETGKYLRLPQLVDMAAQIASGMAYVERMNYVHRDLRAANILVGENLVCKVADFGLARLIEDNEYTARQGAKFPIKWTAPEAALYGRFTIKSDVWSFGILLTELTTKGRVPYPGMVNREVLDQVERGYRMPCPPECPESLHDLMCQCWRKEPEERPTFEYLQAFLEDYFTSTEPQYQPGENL
PLK1, sequence (P53350 whole entry): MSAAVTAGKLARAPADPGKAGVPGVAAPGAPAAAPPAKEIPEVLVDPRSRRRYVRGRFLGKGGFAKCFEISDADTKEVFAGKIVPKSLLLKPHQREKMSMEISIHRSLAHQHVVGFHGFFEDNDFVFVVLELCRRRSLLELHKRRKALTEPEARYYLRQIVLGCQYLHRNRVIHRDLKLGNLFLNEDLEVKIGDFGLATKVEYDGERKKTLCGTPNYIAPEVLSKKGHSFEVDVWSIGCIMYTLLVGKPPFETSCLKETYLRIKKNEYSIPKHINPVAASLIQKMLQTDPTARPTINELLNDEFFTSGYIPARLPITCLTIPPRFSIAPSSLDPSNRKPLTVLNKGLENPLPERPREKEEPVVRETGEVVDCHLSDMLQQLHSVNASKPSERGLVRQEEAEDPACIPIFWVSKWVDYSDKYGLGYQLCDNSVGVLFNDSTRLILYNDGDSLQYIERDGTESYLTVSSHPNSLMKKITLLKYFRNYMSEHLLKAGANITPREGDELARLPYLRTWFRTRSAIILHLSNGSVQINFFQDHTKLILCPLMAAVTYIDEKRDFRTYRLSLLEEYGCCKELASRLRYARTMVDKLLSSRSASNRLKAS
RPS6KA1 (RSK1), sequence (Q15418 whole entry): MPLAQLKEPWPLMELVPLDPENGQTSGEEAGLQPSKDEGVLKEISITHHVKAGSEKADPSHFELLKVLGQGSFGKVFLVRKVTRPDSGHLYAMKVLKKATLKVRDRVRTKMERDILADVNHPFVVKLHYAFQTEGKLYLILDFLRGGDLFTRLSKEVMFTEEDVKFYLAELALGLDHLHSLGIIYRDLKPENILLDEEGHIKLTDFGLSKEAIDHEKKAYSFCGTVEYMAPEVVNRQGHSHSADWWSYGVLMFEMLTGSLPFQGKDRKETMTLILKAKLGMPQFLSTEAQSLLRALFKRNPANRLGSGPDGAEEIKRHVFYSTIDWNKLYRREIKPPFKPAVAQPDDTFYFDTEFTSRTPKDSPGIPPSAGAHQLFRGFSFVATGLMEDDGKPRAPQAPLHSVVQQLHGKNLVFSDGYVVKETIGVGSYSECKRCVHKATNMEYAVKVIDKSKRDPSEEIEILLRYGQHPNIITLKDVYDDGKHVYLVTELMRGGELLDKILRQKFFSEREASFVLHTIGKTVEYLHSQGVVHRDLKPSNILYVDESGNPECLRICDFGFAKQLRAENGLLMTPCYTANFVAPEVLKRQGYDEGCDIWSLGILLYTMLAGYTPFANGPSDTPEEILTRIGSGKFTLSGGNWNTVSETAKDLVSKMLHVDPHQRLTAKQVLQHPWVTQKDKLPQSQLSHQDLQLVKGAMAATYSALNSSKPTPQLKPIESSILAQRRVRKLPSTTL
NTRK2 (TRKB), sequence (Q16620 32-822): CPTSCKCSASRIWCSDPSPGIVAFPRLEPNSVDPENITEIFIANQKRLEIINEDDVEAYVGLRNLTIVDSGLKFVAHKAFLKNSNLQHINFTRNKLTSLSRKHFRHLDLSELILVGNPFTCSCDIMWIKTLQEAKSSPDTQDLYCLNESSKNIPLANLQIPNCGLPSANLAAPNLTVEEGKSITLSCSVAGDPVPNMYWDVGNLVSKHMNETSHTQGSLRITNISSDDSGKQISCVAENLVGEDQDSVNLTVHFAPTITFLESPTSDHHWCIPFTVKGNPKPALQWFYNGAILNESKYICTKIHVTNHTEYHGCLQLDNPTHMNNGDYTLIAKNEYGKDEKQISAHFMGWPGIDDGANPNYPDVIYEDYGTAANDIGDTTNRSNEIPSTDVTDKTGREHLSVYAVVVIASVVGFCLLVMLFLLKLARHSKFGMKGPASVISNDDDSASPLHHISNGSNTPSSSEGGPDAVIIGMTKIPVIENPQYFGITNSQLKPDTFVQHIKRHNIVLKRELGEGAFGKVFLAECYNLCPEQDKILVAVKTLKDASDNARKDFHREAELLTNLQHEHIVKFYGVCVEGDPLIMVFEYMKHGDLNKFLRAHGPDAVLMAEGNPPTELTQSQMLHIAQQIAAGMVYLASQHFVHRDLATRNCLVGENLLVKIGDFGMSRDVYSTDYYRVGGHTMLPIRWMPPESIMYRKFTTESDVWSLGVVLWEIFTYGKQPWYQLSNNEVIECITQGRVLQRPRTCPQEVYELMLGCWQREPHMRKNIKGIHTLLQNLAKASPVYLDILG
ROCK2, sequence (O75116 whole entry): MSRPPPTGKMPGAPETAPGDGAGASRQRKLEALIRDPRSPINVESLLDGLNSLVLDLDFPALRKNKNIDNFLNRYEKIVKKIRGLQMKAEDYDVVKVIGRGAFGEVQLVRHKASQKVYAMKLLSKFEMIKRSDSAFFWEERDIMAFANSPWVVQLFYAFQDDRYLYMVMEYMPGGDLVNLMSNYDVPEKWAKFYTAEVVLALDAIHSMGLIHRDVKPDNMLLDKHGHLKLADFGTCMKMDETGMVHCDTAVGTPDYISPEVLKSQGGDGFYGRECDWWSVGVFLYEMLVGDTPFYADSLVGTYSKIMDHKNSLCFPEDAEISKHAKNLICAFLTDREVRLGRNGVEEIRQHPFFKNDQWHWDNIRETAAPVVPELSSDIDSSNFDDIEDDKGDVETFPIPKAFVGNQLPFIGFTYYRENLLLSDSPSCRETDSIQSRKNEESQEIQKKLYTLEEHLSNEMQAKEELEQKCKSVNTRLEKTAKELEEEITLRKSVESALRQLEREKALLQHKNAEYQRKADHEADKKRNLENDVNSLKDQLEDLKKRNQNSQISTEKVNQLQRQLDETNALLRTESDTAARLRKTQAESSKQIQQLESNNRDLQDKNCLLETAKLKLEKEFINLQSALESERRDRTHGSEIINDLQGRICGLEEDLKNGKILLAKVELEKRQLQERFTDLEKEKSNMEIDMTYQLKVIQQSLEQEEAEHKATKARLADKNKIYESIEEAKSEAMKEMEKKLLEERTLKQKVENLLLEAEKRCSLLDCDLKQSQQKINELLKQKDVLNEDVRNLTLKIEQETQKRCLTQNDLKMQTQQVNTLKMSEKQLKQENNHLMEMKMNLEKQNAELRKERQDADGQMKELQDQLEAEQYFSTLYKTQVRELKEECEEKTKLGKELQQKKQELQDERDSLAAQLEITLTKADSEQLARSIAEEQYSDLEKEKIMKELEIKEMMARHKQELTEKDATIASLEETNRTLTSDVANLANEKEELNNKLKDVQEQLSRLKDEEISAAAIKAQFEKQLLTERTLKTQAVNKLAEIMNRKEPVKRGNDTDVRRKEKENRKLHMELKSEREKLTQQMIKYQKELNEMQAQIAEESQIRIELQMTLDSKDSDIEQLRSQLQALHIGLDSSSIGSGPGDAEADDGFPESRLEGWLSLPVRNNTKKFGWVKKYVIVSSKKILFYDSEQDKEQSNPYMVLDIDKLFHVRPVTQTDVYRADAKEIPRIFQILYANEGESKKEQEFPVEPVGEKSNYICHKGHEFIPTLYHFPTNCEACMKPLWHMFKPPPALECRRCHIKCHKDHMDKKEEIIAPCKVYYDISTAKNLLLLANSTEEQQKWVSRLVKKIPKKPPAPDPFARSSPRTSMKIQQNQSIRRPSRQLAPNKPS

`C=CC(=O)Nc1ccc2c(c1)n(C1CCN(Cc3ccc(-c4nc5cc[nH]c(=O)c5cc4-c4ccccc4)cc3)CC1)c(=O)n2C` [24b]: the inhibition at 1 µM in assay [1] is 9%; in assay [2] it was 19%; in assay [3], -3%; in assay [4], 0%; in assay [5], 5%; in assay [6], 19%. Besides, the inhibition at 1 µM in [7] worked out at 7%; in [8], 14%; in assay [9], 7%.

As to `C=CC(=O)Nc1cccc(C(=O)NC2CCN(Cc3ccc(-c4nc5cc[nH]c(=O)c5cc4-c4ccccc4)cc3)CC2)c1` [30b], the inhibition at 1 µM was 21% in assay [1]; 29% in assay [2]; -4% in assay [3]; 8% in assay [4]; 6% in [5]; 17% in [6]. Further, the inhibition at 1 µM in [7] is 14%; in [8], 27%; in assay [9], 10%.

On to `C=CC(=O)Nc1cc(NC(=O)NC2CCN(Cc3ccc(-c4nc5cc[nH]c(=O)c5cc4-c4ccccc4)cc3)CC2)ccc1Cl` [compound 27], for which the inhibition at 1 µM in assay [1] is 31%; in assay [2] it was 21%; in [3], -14%; in [4] it was 1%; in assay [5], 1%; in [6], 36%. Further, the inhibition at 1 µM in assay [7] is 14%; in assay [8], 22%; in assay [9], 24%.
